Measurements from patent publication US20070185161A1, “Bicyclic substituted indole-derivative steroid hormone nuclear receptor modulators” (priority 2004, published 2007).

Biological target: T1, human GR (glucocorticoid receptor) (Homo sapiens, UniProt P04150)
T1 construct: expressed in transfected cells; host or cells: 293 cells
T1 sequence (P04150 1-777): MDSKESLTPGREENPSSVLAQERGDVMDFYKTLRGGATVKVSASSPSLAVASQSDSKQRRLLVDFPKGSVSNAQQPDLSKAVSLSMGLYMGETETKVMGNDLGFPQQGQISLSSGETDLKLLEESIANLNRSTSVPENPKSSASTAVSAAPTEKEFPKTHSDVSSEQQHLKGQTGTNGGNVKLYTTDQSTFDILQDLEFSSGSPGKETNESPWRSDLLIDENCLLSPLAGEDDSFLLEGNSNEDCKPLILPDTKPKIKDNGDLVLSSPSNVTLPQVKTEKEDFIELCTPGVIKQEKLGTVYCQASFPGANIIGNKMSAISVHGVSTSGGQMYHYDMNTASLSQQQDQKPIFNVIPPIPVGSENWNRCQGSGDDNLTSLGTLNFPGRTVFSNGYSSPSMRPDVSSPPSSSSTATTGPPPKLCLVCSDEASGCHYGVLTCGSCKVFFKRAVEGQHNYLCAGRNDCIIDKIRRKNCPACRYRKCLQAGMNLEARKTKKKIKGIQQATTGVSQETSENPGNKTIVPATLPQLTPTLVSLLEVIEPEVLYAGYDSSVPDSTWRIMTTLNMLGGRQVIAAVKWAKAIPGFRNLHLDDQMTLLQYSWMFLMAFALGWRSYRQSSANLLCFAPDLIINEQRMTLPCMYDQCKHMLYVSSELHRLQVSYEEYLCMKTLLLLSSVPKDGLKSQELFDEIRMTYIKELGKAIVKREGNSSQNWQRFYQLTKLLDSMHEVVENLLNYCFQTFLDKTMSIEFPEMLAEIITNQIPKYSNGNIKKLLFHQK
Experiment: Alternative Binding Assay Protocol (Method 2), GR
Settings: 3H-dexamethasone, 293-GR lysate, racemic mixture unless otherwise indicated
Experimental: Cell lysates from 293 cells overexpressing human GR (glucocorticoid receptor), AR (androgen receptor), MR (mineralocorticoid receptor) or PR (progesterone receptor) are used for competition binding assays to determine Ki values for test compounds. Briefly, competition binding assays are run in a buffer containing 20 mM Hepes, pH 7.6, 0.2 mM EDTA, 75 mM NaCl, 1.5 mM MgCl2, 20% glycerol, 20 mM sodium molybdate, 0.2 mM DTT, 20 ug/ml aprotinin and 20 ug/ml leupeptin, using either 0.3 nM ^3H-dexamethasone for GR binding, 0.36 nM ^3H-methyltrienolone for AR binding, 0.25 nM ^3H-aldosterone for MR binding, or 0.29 nM ^3H-methyltrienolone for PR binding, and either 20 ug 293-GR lysate, 22 ug 293-AR lysate, 20 ug 293-MR lysate or 40 ug 293-PR lysate per well. Competing compounds are added at various concentraions in half-log increments. Non-specific binding is determined in the presence of 500 nM dexamethasone for GR binding, 500 nM aldosterone for MR binding, or 500 nM methyltrienolone for AR and PR binding,. The binding reaction (140 μl) is incubated for overnight at […], then 70 μl of cold charcoal-dextran buffer (containing per 50 ml of assay buffer, 0.75 g of charcoal and 0.25 g of dextran) is added to each reaction. Plates are mixed 8 minutes on an orbital shaker at 4° C. Plates are then centrifuged at 3,000 rpm at 4° C. for 10 minutes. An aliquot of 120 μl of the mix is transferred to another 96-well plate and 175 μl of Wallac Optiphase “Hisafe 3” scintillation fluid is added to each well. Plates are sealed and shaken vigorously on an orbital shaker. After an incubation of 2 hrs, plates are read in a Wallac Microbeta counter. The data is used to calculate an IC50 and % Inhibition at 10 μM. The Kd for ^3H-dexamethasone for GR binding, ^3H-methyltrienolone for AR binding, ^3H-aldosterone for MR binding, or ^3H-methyltrienolone for PR binding, is determined by saturation binding. The IC50 values for compounds are converted to Ki using Cheng-Prusoff equation and the Kd determined by saturation binding assay.

| SMILES | Ki [nM] |
| --- | --- |
| CC1(c2c[nH]c3c(NS(C)(=O)=O)cccc23)CCc2cc(F)cc(F)c21 (racemic) [Example 22, N-[3-(5,7-Difluoro-1-methyl-indan-1-yl)-1H-indol-7-yl]-methanesulfonamide] | ≤ 500 |
| CC1(c2c[nH]c3c(NS(C)(=O)=O)cccc23)CCOc2cc(F)ccc21 (racemic) [Example 34, N-[3-(7-Fluoro-4-methyl-chroman-4-yl)-1H-indol-7-yl]-methanesulfonamide] | ≤ 500 |
| CCC1(c2c[nH]c3c(NS(C)(=O)=O)cccc23)CCOc2cc(F)ccc21 (racemic) [Example 35, N-[3-(4-Ethyl-7-fluoro-chroman-4-yl)-1H-indol-7-yl]-methanesulfonamide] | ≤ 500 |
| CCC1(c2c[nH]c3c(NS(C)(=O)=O)cccc23)CCOc2cc(F)cc(F)c21 (racemic) [Example 36, N-[3-(4-Ethyl-5,7-difluoro-chroman-4-yl)-1H-indol-7-yl]-methanesulfonamide] | ≤ 500 |
| CS(=O)(=O)Nc1cccc2c(C3(C4CC4)CCc4cc(F)ccc43)c[nH]c12 (racemic) [Example 39, N-[3-(1-Cyclopropyl-5-fluoro-indan-1-yl)-1H-indol-7-yl]-methanesulfonamide] | ≤ 500 |
| CS(=O)(=O)Nc1cccc2c(C3(CCCO)CCc4cc(F)ccc43)c[nH]c12 (racemic) [Example 40, N-{3-[5-Fluoro-1-(3-hydroxy-propyl)-indan-1-yl]-1H-indol-7-yl}-methanesulfonamide] | ≤ 500 |
| CC1(c2c[nH]c3c(NS(C)(=O)=O)cccc23)CCc2cc(F)cc(F)c21 (single isomer, unassigned) [Example 22A, N-[3-(5,7-Difluoro-1-methyl-indan-1-yl)-1H-indol-7-yl]-methanesulfonamide] | ≤ 500 |
| CC1(c2c[nH]c3c(NS(C)(=O)=O)cccc23)CCc2cc(F)cc(F)c21 (single isomer, unassigned) [Example 22B, N-[3-(5,7-Difluoro-1-methyl-indan-1-yl)-1H-indol-7-yl]-methanesulfonamide] | ≤ 500 |
| CC1(c2c[nH]c3c(NS(C)(=O)=O)cccc23)CCOc2cc(F)ccc21 (single isomer, unassigned) [Example 34A, N-[3-(7-Fluoro-4-methyl-chroman-4-yl)-1H-indol-7-yl]-methanesulfonamide] | ≤ 500 |
| CC1(c2c[nH]c3c(NS(C)(=O)=O)cccc23)CCOc2cc(F)ccc21 (single isomer, unassigned) [Example 34B, N-[3-(7-Fluoro-4-methyl-chroman-4-yl)-1H-indol-7-yl]-methanesulfonamide] | ≤ 500 |
| CCC1(c2c[nH]c3c(NS(C)(=O)=O)cccc23)CCOc2cc(F)ccc21 (single isomer, unassigned) [Example 35A, N-[3-(4-Ethyl-7-fluoro-chroman-4-yl)-1H-indol-7-yl]-methanesulfonamide] | ≤ 500 |
| CCC1(c2c[nH]c3c(NS(C)(=O)=O)cccc23)CCOc2cc(F)ccc21 (single isomer, unassigned) [Example 35B, N-[3-(4-Ethyl-7-fluoro-chroman-4-yl)-1H-indol-7-yl]-methanesulfonamide] | ≤ 500 |
| CCC1(c2c[nH]c3c(NS(C)(=O)=O)cccc23)CCOc2cc(F)cc(F)c21 (single isomer, unassigned) [Example 36A, N-[3-(4-Ethyl-5,7-difluoro-chroman-4-yl)-1H-indol-7-yl]-methanesulfonamide] | ≤ 500 |
| CCC1(c2c[nH]c3c(NS(C)(=O)=O)cccc23)CCOc2cc(F)cc(F)c21 (single isomer, unassigned) [Example 36B, N-[3-(4-Ethyl-5,7-difluoro-chroman-4-yl)-1H-indol-7-yl]-methanesulfonamide] | ≤ 500 |
| CS(=O)(=O)Nc1cccc2c(C3(C4CC4)CCc4cc(F)ccc43)c[nH]c12 (single isomer, unassigned) [Example 39A, N-[3-(1-Cyclopropyl-5-fluoro-indan-1-yl)-1H-indol-7-yl]-methanesulfonamide] | ≤ 500 |
| CS(=O)(=O)Nc1cccc2c(C3(C4CC4)CCc4cc(F)ccc43)c[nH]c12 (single isomer, unassigned) [Example 39B, N-[3-(1-Cyclopropyl-5-fluoro-indan-1-yl)-1H-indol-7-yl]-methanesulfonamide] | ≤ 500 |
| CS(=O)(=O)Nc1cccc2c(C3(CCCO)CCc4cc(F)ccc43)c[nH]c12 (single isomer, unassigned) [Example 40A, N-{3-[5-Fluoro-1-(3-hydroxy-propyl)-indan-1-yl]-1H-indol-7-yl}-methanesulfonamide] | ≤ 500 |
| CS(=O)(=O)Nc1cccc2c(C3(CCCO)CCc4cc(F)ccc43)c[nH]c12 (single isomer, unassigned) [Example 40B, N-{3-[5-Fluoro-1-(3-hydroxy-propyl)-indan-1-yl]-1H-indol-7-yl}-methanesulfonamide] | ≤ 500 |
| CCC1(c2c[nH]c3c([N+](=O)[O-])cccc23)CCc2cc(F)ccc21 (centres unmarked) [Example 2, 3-(1-Ethyl-5-fluoro-indan-1-yl)-7-nitro-1H-indole] | ≤ 500 |
| CCC1(c2cn(C)c3c(NS(C)(=O)=O)cccc23)CCc2cc(F)ccc21 (centres unmarked) [Example 5, N-[3-(1-Ethyl-5-fluoro-indan-1-yl)-1-methyl-1H-indol-7-yl]-methanesulfonamide] | ≤ 500 |
| CCC1(c2c[nH]c3c(N)cccc23)CCc2cc(F)ccc21 (centres unmarked) [Example 14, 3-(1-Ethyl-5-fluoro-indan-1-yl)-1H-indol-7-ylamine] | ≤ 1000 |
| CCC1(c2c[nH]c3c(NC(=O)OC)cccc23)CCc2cc(F)ccc21 (centres unmarked) [Example 15, [3-(1-Ethyl-5-fluoro-indan-1-yl)-1H-indol-7-yl]-carbamic acid methyl ester] | ≤ 500 |
| CCC1(c2c[nH]c3c(NC(C)=O)cccc23)CCc2cc(F)ccc21 (centres unmarked) [Example 16, N-[3-(1-ethyl-5-fluoro-indan-1-yl)-1H-indol-7-yl]-acetamide] | ≤ 500 |
| CCC1(c2c[nH]c3c(NS(=O)(=O)N(C)C)cccc23)CCc2cc(F)ccc21 (centres unmarked) [Example 17] | ≤ 500 |
| CCC1(c2c[nH]c3c(NS(=O)(=O)c4ccccc4)cccc23)CCc2cc(F)ccc21 (centres unmarked) [Example 18, N-[3-(1-ethyl-5-fluoro-indan-1-yl)-1H-indol-7-yl]-benzenesulfonamide] | ≤ 500 |
| CCC1(c2c[nH]c3c(NS(=O)(=O)CC)cccc23)CCc2cc(F)ccc21 (centres unmarked) [Example 19, Ethanesulfonic acid [3-(1-ethyl-5-fluoro-indan-1-yl)-1H-indol-7-yl]-amide] | ≤ 500 |
| CS(=O)(=O)Nc1cccc2c(C3(CCCI)CCc4cc(F)ccc43)c[nH]c12 (centres unmarked) [Example 41, N-{3-[5-Fluoro-1-(3-iodo-propyl)-indan-1-yl]-1H-indol-7-yl}-methanesulfonamide] | ≤ 500 |
| CNCCCC1(c2c[nH]c3c(NS(C)(=O)=O)cccc23)CCc2cc(F)ccc21 (centres unmarked) [Example 42, N-{3-[5-Fluoro-1-(3-methylamino-propyl)-indan-1-yl]-1H-indol-7-yl}-methanesulfonamide] | ≤ 500 |
| CS(=O)(=O)Nc1cccc2c(C3(CCCN4CCOCC4)CCc4cc(F)ccc43)c[nH]c12 (centres unmarked) [Example 44, N-{3-[5-Fluoro-1-(3-morpholin-4-yl-propyl)-indan-1-yl]-1H-indol-7-yl}-methanesulfonamide] | ≤ 500 |
